One molecule from ChEMBL document CHEMBL1127106, “Synthesis and cytotoxic activity of () octadecylphosphodithionyl-1-myo-inositol” (1993) can be followed below.

Values joined by “and” are separate entries in the source; they are usually repeats but may differ in a detail not shown here. Equal values may be shown once.

Type in all cases: functional, Homo sapiens
The subject of assay [1] is K562. The experiment in a line: Cytotoxic activity on K-562 erythroleukemia cell line suspension in 5% foetal calf serum (FCS) at 4*10e-6 M concentration after 1 hr.
The subject of assay [2] is K562. The assay can be described thus: Cytotoxic activity on K-562 erythroleukemia cell line suspension in 5% foetal calf serum (FCS) at 4*10e-6 M concentration after 24 hr.
For assay [3], the system named is K562. The experiment in a line: Cytotoxic activity on K-562 erythroleukemia cell line suspension in 5% foetal calf serum (FCS) at 4*10e-6 M concentration after 2 hr.
Assay [4] has as its system K562. The experiment in a line: Cytotoxic activity on K-562 erythroleukemia cell line suspension in 5% foetal calf serum (FCS) at 10e-3 M concentration after 1 hr.
Assay [5] concerns K562. The experiment in a line: Cytotoxic activity on K-562 erythroleukemia cell line suspension in 5% foetal calf serum (FCS) at 10e-3 M concentration after 24 hr.
Assay [6] relates to K562. The experiment in a line: Cytotoxic activity on K-562 erythroleukemia cell line suspension in 5% foetal calf serum (FCS) at 10e-3 M concentration after 2 hr.
The test system of assay [7] is K562. The assay can be described thus: Cytotoxic activity on K-562 erythroleukemia cell line suspension in 5% foetal calf serum (FCS) at 10e-4 M concentration after 1 hr.
Assay [8] has as its system K562. The assay can be described thus: Cytotoxic activity on K-562 erythroleukemia cell line suspension in 5% foetal calf serum (FCS) at 10e-4 M concentration after 24 hr.
The subject of assay [9] is K562. The assay can be described thus: Cytotoxic activity on K-562 erythroleukemia cell line suspension in 5% foetal calf serum (FCS) at 10e-4 M concentration after 2 hr.
In assay [10] the test system is K562. The experiment in a line: Cytotoxic activity on K-562 erythroleukemia cell line suspension in 5% foetal calf serum (FCS) at 10e-5 M concentration after 1 hr.
The test system of assay [11] is K562. The assay can be described thus: Cytotoxic activity on K-562 erythroleukemia cell line suspension in 5% foetal calf serum (FCS) at 10e-5 M concentration after 24 hr.
Assay [12] relates to K562. The assay can be described thus: Cytotoxic activity on K-562 erythroleukemia cell line suspension in 5% foetal calf serum (FCS) at 10e-5 M concentration after 2 hr.
For assay [13], the system named is K562. The experiment in a line: Cytotoxic activity on K-562 erythroleukemia cell line suspension in 5% foetal calf serum (FCS) at 10e-6 M concentration after 1 hr.
Assay [14] has as its system K562. The assay can be described thus: Cytotoxic activity on K-562 erythroleukemia cell line suspension in 5% foetal calf serum (FCS) at 10e-6 M concentration after 24 hr.
For assay [15], the system named is K562. The experiment in a line: Cytotoxic activity on K-562 erythroleukemia cell line suspension in 5% foetal calf serum (FCS) at 10e-6 M concentration after 2 hr.
Assay [16] has as its system K562. The experiment in a line: Cytotoxic activity on K-562 erythroleukemia cell line suspension in 5% foetal calf serum (FCS) at 4*10e-4 M concentration after 1 hr.
Assay [17] has as its system K562. The assay can be described thus: Cytotoxic activity on K-562 erythroleukemia cell line suspension in 5% foetal calf serum (FCS) at 4*10e-4 M concentration after 24 hr.
Assay [18] relates to K562. The experiment in a line: Cytotoxic activity on K-562 erythroleukemia cell line suspension in 5% foetal calf serum (FCS) at 4*10e-5 M concentration after 1 hr.
The test system of assay [19] is K562. The assay can be described thus: Cytotoxic activity on K-562 erythroleukemia cell line suspension in 5% foetal calf serum (FCS) at 4*10e-5 M concentration after 24 hr.
The test system of assay [20] is K562. The experiment in a line: Cytotoxic activity on K-562 erythroleukemia cell line suspension in 5% foetal calf serum (FCS) at 4*10e-5 M concentration after 2 hr.

Regarding `CCCCCCCCCCCCCCCCCCSP(O)(=S)O[C@@H]1[C@@H](O)[C@H](O)[C@@H](O)[C@H](O)[C@@H]1O` (stereo not given in full), the Dead cells with K562 [1] was 13.3%; with K562 [2], 22.5%; in the assay with K562 [3] it was 16.8% and 45.9%; in the assay with K562 [4], 48.9%; in the assay on K562 [5] it was 96.2%; in the assay on K562 [6], 52.52%. Further, the Dead cells in the assay with K562 [7] worked out at 18.4%; in the assay on K562 [8] it was 40%; in the assay with K562 [9] it was 22.7%; in the assay on K562 [10] it was 13.3%; in the assay on K562 [11], 23.3%; in the assay with K562 [12] it was 16.6%. The Dead cells is reported as 14% in the assay on K562 [13]; 27.2% in the assay with K562 [14]; 18.2% with K562 [15]; 48.2% in the assay with K562 [16]; 71.1% with K562 [17]; 15.5% in the assay on K562 [18]. For the same molecule, the Dead cells in the assay with K562 [19] stood at 24.4%; in the assay on K562 [20], 17%.
